Reference: article PMC11240924, “Isolation, Identification, and Biological Activities of a New Chlorin e6 Derivative” (International Journal of Molecular Sciences, 2024)

Test: Singlet oxygen photogeneration (DPBF quenching)
Conditions: 1 µM, DMSO, DPBF 50 μM, 660 nm laser 0.5 J/cm^2
Procedure: Singlet oxygen photoregeneration was carried out using 1, 3-diphenylisobenzofuran (DPBF) in DMSO. DPBF is a selective ^1O2 acceptor that reacts with ^1O2. The sample solutions of DPBF (50 μM) which contained DPBF only (50 μM, as a control), MB (1, 5, and 10 μM), chlorin e6 (1, 5, and 10 μM), and rhodin g7 7^1-ethyl ester (1, 5, and 10 μM) were prepared under dark conditions. All of the samples were placed in a 96-well plate, which was covered with aluminum foil. The samples were then irradiated (660 nm, 50 mW, 0.5 J/cm^2) for 1 min and 40 s, and after irradiation, the visible spectra of the sample solutions were measured spectrophotometrically. The normalized absorbance of DPBF at 418 nm was measured in these samples. The ^1O2 photo-generation activities of MB, chlorin e6, and rhodin g7 7^1-ethyl ester can be compared with the different absorbance decay of each sample relative to the DPBF control sample.

CN(C)c1ccc2nc3ccc(=[N+](C)C)cc-3sc2c1 [MB, Methylene blue, reference compound]
^1O2 generation (DPBF absorbance at 418 nm): 22.22%
